The test system of data set [1] is FaDu xenografts. Put plainly: Intratumoral microvessel density (CD31 immunostaining) in FaDu xenografts. The format is in vivo. Particulars: 0.2 mg/mouse/day, after 2 weeks, p<0.05.
From the text: Microvessels were counted based on endothelial cells immunostaining with CD31 Mab on paraffin sections, after zinc fixative (p<0.05 in each system).
Data set [2] deals with matrigel plug containing cultured FaDu tumor cells. In words: Matrigel plug (s.c.) containing cultured FaDu tumor cells, microvessel count. The format is in vivo. Particulars: 0.2 mg/mouse/day, after 1 week, 10^6 cells s.c., p<0.05. The source says: (§1) Thus, selenium inhibits proliferation of endothelial cells.
The test system of a further data set is VEGF. Put plainly: VEGF expression (WB) and secretion (ELISA) in FaDu tumor cells in vitro. Type of data set: cell-based.
From the text: as §1

The subject of data set [3] is endothelial cells in the angiogenic microvessels. In words: CD31/Tunnel double staining of angiogenic microvessels. Type of data set: in vivo, mouse.
From the text: as §1

A further data set has as its system tumor microvessels. Put plainly: Histopathological studies for direct antivascular effect. Type of data set: in vivo, mouse. To be noted: histopathology.
From the text: as §1

Data set [4] has as its system FaDu xenografts. In words: DCE-MRI (albumin-GdDTPA) of tumor vascular permeability and volume in FaDu xenografts. The format is in vivo, mouse. The protocol:
FaDu xenograft bearing mice were used. MSC was administered for 14 days. Mice were imaged using a 4.7-T/33-cm horizontal bore magnet (GE NMR Instruments, Fremont, Calif.) incorporating AVANCE digital electronics [Bruker Biospec, ParaVision 3.0.2 OS); Bruker Medical, Billerica, Mass.], a removable gradient coil insert (G060; Bruker Medical) generating a maximum field strength of 950 mT/m, and a custom-designed radiofrequency transreceiver coil. Animals were anesthetized before imaging with a ketamine/xylazine mixture (10:1) at a dose of […], secured in a mouse coil chamber, and positioned on a scanner. The animals were kept warm in the magnet using a circulating water bath maintained at 37 jC. […] T1 relaxation rates were determined using a saturation recovery, fast spin echo sequence with an effective echo time (TE) of 10 milliseconds, and a TR ranging from 360 to 6000 milliseconds [FOV=32×32 mm, slice thickness=1.0 mm, matrix size=128×96 pixels, number of excitations (NEX)=3]. […]
Image processing and analysis were carried out using commercially available software (ANALYZE PC, Version 5.0; Biomedical Imaging Resource, Mayo Foundation, Rochester, Minn.) (Matlab's curve-fitting toolbox, Matlab Version 7.0; Math Works, Inc., Natick, Mass.). […] Percent tumor enhancement (E) was then calculated from relative intensity (RI) […]

Another data set relates to FaDu tumors. Put plainly: CD31/α-SMA double immunohistochemical staining of FaDu tumors. Type of data set: in vivo, mouse. Particulars: day 14 of MSC treatment. The text has this: MSC treatment results in reduction of tumor vascular leakiness as reflected by the slope of the ΔR1 values in FaDu xenografts. This could be a result of tumor vascular maturation as determined by the double immunohistochemical staining for the pan endothelial cell adhesion molecule (PECAM; CD31) and α-SMA in control and MSC treated mice (Day 14 of MSC treatment).
This is in agreement with our estimates of MVD as MSC treatment does lead to a reduction in MVD. However, the decrease in permeability could be a result of the ‘maturation’ effect of MSC. To validate findings from the imaging studies, immunohistochemical staining for the pan endothelial cell adhesion molecule (PECAM; CD31) along with staining with alpha-smooth muscle actin was performed in control and MSC-treated mice (Day 14 after treatment).

Data set [5] has as its system FaDu xenografts. In words: Hoechst 33342 / DiOC7 fluorescent dye uptake, functional tumor vasculature. Type of data set: in vivo, mouse. Particulars: post 14 days MSC treatment. The procedure:
Initial studies on uptake of fluorescent dyes Hoechst 33342 (i.v at 15 mg/kg in sterile phosphate buffered saline) followed 20 minutes later with DiOC7 (i.v. at 1 mg/kg in dimethyl sulfoxide) in mice bearing A253 and FaDu xenografts are indicative of tumor vascular maturation by MSC. Uptake of both dyes is indicative of functional vasculature while uptake of only one dye is indicative of […] vasculature. […] Abnormal vasculature shut off when challenged with dyes similar to Hoechst 33342 while blood flow through ‘normalized’ vasculature is not affected.

Data set [6] concerns HNSCC xenografts FaDu and A253. Put plainly: Tumor vascular maturation index and mean vessel lumen area. Type of data set: in vivo. Particulars: vs untreated control tumors. The source says: FIG. 5A summarizes effect of MSC treatment on tumor vascular maturation index (VMI) and on the mean tumor vessel lumen area (FIG. 5B) in HNSCC xenografts FaDu and A253. […] Treatment with MSC makes the arrangement less chaotic and more ‘normalized’ in arrangement.

A short description of data set [7]: Tumor drug uptake by HPLC in FaDu xenografts. The format is in vivo. The protocol: FIGS. 6A and 6B show the effect of 14 days pre-treatment with MSC prior to drug administration on tumor drug uptake (2 hours post i.v.) as determined by HPLC in FaDu xenografts for CPT-11 and doxorubicin respectively. […] The drug concentration in the normal tissues studied such as liver, plasma.

Another data set deals with HNSCC xenograft FaDu. Put plainly: Dose and schedule dependence of therapeutic synergy with irinotecan in FaDu xenograft. Type of data set: in vivo. The text has this:
A minimum 7 days pretreatment with MSC is required to achieve optimal therapeutic synergy with a representative anticancer drug—irinotecan. […] Daily pretreatment for 7-14 days was critical to achieve the selective effects of selenium. This reflects the time required for priming of tumor vasculature by MSC in order to see the therapeutic end results.

The subject of another data set is CD36. In words: Western blot of FaDu xenografts: CD36. Particulars: selenium for 14 days. The format is in vivo. The source says:
(§2) MSC up-regulates Thrombospondin-1 (TSP-1) a potent inhibitor of angiogenesis and important controller of tumor growth and its receptor CD36 (FIG. 8A), HIF-1α expression (FIG. 8B) and relative intensity (FIG. 8C). To assess the effects of selenium on TVM, the expression of molecular markers associated with tumor hypoxia, drug resistance and increased proliferation, namely, hypoxia-inducible factor 1∝ (HIF-1∝), Cyclooxygenase-2 (Cox-2), inducible nitric oxide, propyl hydroxyl domain (PHD) and vascular endothelial growth factor (VEGF) were evaluated in xenograft tumors. Selenium was administered for 14 days. Western blot analysis was performed to determine the effect of MSC treatment on different antiangiogenic markers TSP-1, CD36, Delta-like 4 ligand (DLL4) and hypoxia inducible factor HIF-1α Data in FIG. 8A indicate that CD36 is up regulated in FaDu xenografts treated with MSC. Along with the CD36 MSC up regulates TSP-1, which is known to be involved in the inhibition of angiogenesis. Further, MSC down-regulates DLL4 in FaDu xenografts.

The test system of another data set is Thrombospondin-1 (TSP-1). In words: Western blot of FaDu xenografts: TSP-1. To be noted: selenium for 14 days. The format is in vivo.
From the text: as §2

In data set [8] the test system is Delta-like 4 ligand (DLL4). In words: Western blot of FaDu xenografts: DLL4. To be noted: selenium for 14 days. The format is in vivo.
From the text: as §2

A further data set relates to HIF-1α. In words: HIF-1α expression in hypoxic FaDu tumor cells in vitro. Type of data set: cell-based. Particulars: 24 hr hypoxic conditions, preliminary results. The text has this: To determine whether HIF-1α is a target for MSC, FaDu tumor cells were exposed in vitro for 24 hr to hypoxic conditions and analyzed for HIF-1α expression to FaDu cells. […] The data in FIG. 8C is graphic representation of the relative intensity of each marker.

[9] abbreviates: combination treatment with SN-38.
Where [10] appears, read: 14 days MSC pre-treatment, 2 hours post i.v., vs monotherapy.

Entries after “also recorded” stand apart in the source; their conditions may differ. Bounds are passed on as bounds.

Regarding `C[Se]C[C@H](N)C(=O)O` [MSC, methylselenocysteine], in the data set with FaDu xenografts [1], the “intratumoral microvessel density (MVD)” value was “decreases”. In addition, the “microvessel density in matrigel plug containing FaDu tumor cells” value in [2] is “decreases”. Besides, in the data set on VEGF (setting [9]), the “VEGF expression (WB)” value is given as “down regulates” and the “VEGF secretion (ELISA)” value is “down regulates”. Moreover, the VEGF secretion result in the data set with VEGF (selenium alone) is recorded as “decreased”. The “apoptotic endothelial cell nuclei in angiogenic microvessels” value in data set [3] was “did not show apoptotic endothelial cell nuclei”. Besides, the “direct antivascular effect (microvessel necrosis, endothelial cell death, microthrombus formation)” value in the data set with tumor microvessels is “did not show any signs of other direct antivascular effect”. Further, in the data set with FaDu xenografts [4] (14 days MSC treatment), the tumor vascular volume result is on record as “statistically significant decrease”. Moreover, the “tumor vascular permeability (leakiness; slope of ΔR1)” value in the data set on FaDu xenografts [4] (14 days MSC vs volume matched control) is on record as “reduction; also recorded: statistically significant decrease”. The “pericyte recruitment / α-SMA staining of tumor vasculature” value with FaDu tumors is reported as “Increased pericyte recruitment; also recorded: increased staining of α-SMA”. Further, in the data set on FaDu xenografts [5], the “vasculature with uptake of both dyes ('normalized' functional vasculature)” value was “approximately 80%”. Also, the “mean tumor vessel lumen area” value in [6] (p<0.0001) is given as “reduction”. In addition, in data set [6] (p<0.05), the “tumor vascular maturation index (VMI)” value is reported as “significant increase”. Further, in [7] (setting [10]), the “intratumoral drug concentration, CPT-11 (SN-38 per FIG. 6A)” value is on record as “more than doubling” and the “intratumoral drug concentration, doxorubicin” value is “more than doubling”. Also, the “drug concentration in normal tissues” value in data set [7] (liver, plasma, kidney, combination with MSC vs monotherapy) is listed as “did not show a significant increase”. Moreover, the “minimum pretreatment required for optimal therapeutic synergy with irinotecan” value in the data set on HNSCC xenograft FaDu (daily MSC) is no less than 7 days. In addition, in the data set with HNSCC xenograft FaDu (with irinotecan), the therapeutic effect result is “dose and schedule dependent”. Moreover, the CD36 expression result in the data set on CD36 is listed as “up regulated”. In addition, in the data set on Thrombospondin-1 (TSP-1), the TSP-1 expression entry is given as “up regulates”. Moreover, in data set [8], the DLL4 expression result was “down-regulates”. The HIF-1α expression result with HIF-1α was “significant inhibition”.

The values are drawn from patent publication US7744854B2, “Method for optimizing cancer therapy by monitoring maturation of tumor associated vasculature by selenium” (Health Research, Inc., priority 2006, dated 2010).
